Measurements published in the NIST ThermoML archive (doi:10.1016/j.jct.2005.02.004).

Test: mn = molality of the nth substance listed, in mol/kg
Settings: Liquid, Vibrating tube method

[Br-].[Br-].[Zn+2] [zinc bromide] + CO
Settings	mass density [kg/m3]
298.27 K, 175 kPa, m1 = 0.7158	902.32
298.27 K, 206 kPa, m1 = 0.3785	853.39
298.27 K, 206 kPa, m1 = 1.951	1072.66
298.27 K, 4983 kPa, m1 = 1.951	1077.46
298.27 K, 4990 kPa, m1 = 0.3785	858.17
298.27 K, 4998 kPa, m1 = 0.7158	907.05
298.27 K, 9995 kPa, m1 = 1.951	1082.31
298.27 K, 10009 kPa, m1 = 0.7158	911.75
298.27 K, 10013 kPa, m1 = 0.3785	862.94
298.27 K, 14985 kPa, m1 = 0.7158	916.21
298.27 K, 14995 kPa, m1 = 0.3785	867.44
298.27 K, 15001 kPa, m1 = 1.951	1087.02
298.27 K, 19983 kPa, m1 = 1.951	1091.45
298.27 K, 19984 kPa, m1 = 0.3785	871.75
298.27 K, 19989 kPa, m1 = 0.7158	920.51
298.27 K, 24990 kPa, m1 = 1.951	1095.81
298.27 K, 25018 kPa, m1 = 0.3785	875.78
298.27 K, 25019 kPa, m1 = 0.7158	924.66
298.27 K, 29988 kPa, m1 = 0.3785	879.71
298.27 K, 29996 kPa, m1 = 1.951	1100.02
298.27 K, 34982 kPa, m1 = 0.3785	883.51
298.27 K, 34985 kPa, m1 = 0.7158	932.44
298.27 K, 34998 kPa, m1 = 1.951	1104.11
298.27 K, 35000 kPa, m1 = 0.7158	932.43
298.27 K, 39992 kPa, m1 = 0.7158	936.16
298.27 K, 40008 kPa, m1 = 0.3785	887.18
298.27 K, 40010 kPa, m1 = 1.951	1108.09
298.28 K, 200 kPa, m1 = 0.05772	797.74
298.28 K, 4999 kPa, m1 = 0.05772	802.42
298.28 K, 9984 kPa, m1 = 0.05772	807.04
298.28 K, 14988 kPa, m1 = 0.05772	811.39
298.28 K, 19994 kPa, m1 = 0.05772	815.58
298.28 K, 24988 kPa, m1 = 0.05772	819.58
298.28 K, 29998 kPa, m1 = 0.05772	823.42
298.28 K, 34981 kPa, m1 = 0.05772	827.09
298.28 K, 40008 kPa, m1 = 0.05772	830.66
323.22 K, 212 kPa, m1 = 0.7158	876.52
323.22 K, 228 kPa, m1 = 0.3785	828.32
323.22 K, 230 kPa, m1 = 0.05772	773.97
323.22 K, 245 kPa, m1 = 1.951	1042.34
323.22 K, 4983 kPa, m1 = 0.3785	833.75
323.22 K, 4994 kPa, m1 = 0.05772	779.33
323.22 K, 5004 kPa, m1 = 1.951	1047.72
323.22 K, 5010 kPa, m1 = 0.7158	881.93
323.22 K, 9982 kPa, m1 = 1.951	1053.09
323.22 K, 9993 kPa, m1 = 0.3785	839.12
323.22 K, 9999 kPa, m1 = 0.7158	887.26
323.22 K, 10015 kPa, m1 = 0.05772	784.65
323.22 K, 14987 kPa, m1 = 1.951	1058.26
323.22 K, 14997 kPa, m1 = 0.05772	789.6
323.22 K, 14997 kPa, m1 = 0.3785	844.21
323.22 K, 15018 kPa, m1 = 0.7158	892.34
323.22 K, 19990 kPa, m1 = 0.3785	849.04
323.22 K, 19994 kPa, m1 = 0.7158	897.14
323.22 K, 20007 kPa, m1 = 0.05772	794.31
323.22 K, 20009 kPa, m1 = 1.951	1063.24
323.22 K, 24981 kPa, m1 = 0.7158	901.73
323.22 K, 24985 kPa, m1 = 0.05772	798.77
323.22 K, 24994 kPa, m1 = 0.3785	853.6
323.22 K, 24998 kPa, m1 = 1.951	1068
323.22 K, 29987 kPa, m1 = 0.7158	906.15
323.22 K, 29997 kPa, m1 = 1.951	1072.61
323.22 K, 30012 kPa, m1 = 0.05772	803.09
323.22 K, 30016 kPa, m1 = 0.3785	857.92
323.22 K, 34994 kPa, m1 = 0.7158	910.38
323.22 K, 34996 kPa, m1 = 0.05772	807.14
323.22 K, 34997 kPa, m1 = 0.3785	862.1
323.22 K, 35003 kPa, m1 = 1.951	1077.08
323.22 K, 39988 kPa, m1 = 0.3785	866.11
323.22 K, 39997 kPa, m1 = 0.7158	914.47
323.22 K, 39998 kPa, m1 = 0.05772	811.05
323.22 K, 40001 kPa, m1 = 1.951	1081.4
348.23 K, 311 kPa, m1 = 0.3785	802.57
348.23 K, 316 kPa, m1 = 0.7158	850.07
348.23 K, 4989 kPa, m1 = 0.7158	856.15
348.23 K, 5006 kPa, m1 = 0.3785	808.74
348.23 K, 9999 kPa, m1 = 0.3785	814.86
348.23 K, 10009 kPa, m1 = 0.7158	862.27
348.23 K, 14998 kPa, m1 = 0.7158	868
348.23 K, 15007 kPa, m1 = 0.3785	820.6
348.23 K, 19987 kPa, m1 = 0.3785	825.97
348.23 K, 19998 kPa, m1 = 0.7158	873.4
348.23 K, 24998 kPa, m1 = 0.3785	831.08
348.23 K, 25006 kPa, m1 = 0.7158	878.54
348.23 K, 29987 kPa, m1 = 0.7158	883.42
348.23 K, 29988 kPa, m1 = 0.3785	835.92
348.23 K, 34986 kPa, m1 = 0.7158	888.06
348.23 K, 35004 kPa, m1 = 0.3785	840.55
348.23 K, 40002 kPa, m1 = 0.7158	892.55
348.23 K, 40007 kPa, m1 = 0.3785	844.98
348.24 K, 320 kPa, m1 = 0.05772	749.2
348.24 K, 338 kPa, m1 = 1.951	1012.66
348.24 K, 4981 kPa, m1 = 0.05772	755.32
348.24 K, 4997 kPa, m1 = 1.951	1018.61
348.24 K, 9997 kPa, m1 = 0.05772	761.44
348.24 K, 10010 kPa, m1 = 1.951	1024.67
348.24 K, 14982 kPa, m1 = 0.05772	767.11
348.24 K, 14997 kPa, m1 = 1.951	1030.41
348.24 K, 19995 kPa, m1 = 1.951	1035.89
348.24 K, 20002 kPa, m1 = 0.05772	772.47
348.24 K, 25006 kPa, m1 = 1.951	1041.15
348.24 K, 25019 kPa, m1 = 0.05772	777.52
348.24 K, 29980 kPa, m1 = 1.951	1046.17
348.24 K, 29988 kPa, m1 = 0.05772	782.26
348.24 K, 34988 kPa, m1 = 0.05772	786.8
348.24 K, 34988 kPa, m1 = 1.951	1051.04
348.24 K, 39992 kPa, m1 = 1.951	1055.74
348.24 K, 39996 kPa, m1 = 0.05772	791.14
373.24 K, 509 kPa, m1 = 0.3785	775.13
373.24 K, 510 kPa, m1 = 0.7158	822.07
373.24 K, 4989 kPa, m1 = 0.3785	782.12
373.24 K, 5012 kPa, m1 = 0.7158	828.98
373.24 K, 9999 kPa, m1 = 0.7158	836.05
373.24 K, 10005 kPa, m1 = 0.3785	789.3
373.24 K, 14990 kPa, m1 = 0.7158	842.63
373.24 K, 14993 kPa, m1 = 0.3785	795.89
373.24 K, 19988 kPa, m1 = 0.7158	848.79
373.24 K, 20013 kPa, m1 = 0.3785	802.08
373.24 K, 24986 kPa, m1 = 0.3785	807.84
373.24 K, 25005 kPa, m1 = 0.7158	854.61
373.24 K, 29988 kPa, m1 = 0.3785	813.28
373.24 K, 29996 kPa, m1 = 0.7158	860.06
373.24 K, 35005 kPa, m1 = 0.3785	818.47
373.24 K, 35010 kPa, m1 = 0.7158	865.28
373.24 K, 39999 kPa, m1 = 0.3785	823.36
373.24 K, 40008 kPa, m1 = 0.7158	870.23
373.25 K, 530 kPa, m1 = 0.05772	722.55
373.25 K, 5013 kPa, m1 = 0.05772	729.6
373.25 K, 10010 kPa, m1 = 0.05772	736.76
373.25 K, 14996 kPa, m1 = 0.05772	743.34
373.25 K, 20007 kPa, m1 = 0.05772	749.46
373.25 K, 25002 kPa, m1 = 0.05772	755.2
373.25 K, 29988 kPa, m1 = 0.05772	760.57
373.25 K, 35011 kPa, m1 = 0.05772	765.68
373.25 K, 40009 kPa, m1 = 0.05772	770.5
373.26 K, 510 kPa, m1 = 1.951	982.6
373.26 K, 4981 kPa, m1 = 1.951	989.17
373.26 K, 9999 kPa, m1 = 1.951	996.08
373.26 K, 14998 kPa, m1 = 1.951	1002.57
373.26 K, 19990 kPa, m1 = 1.951	1008.69
373.26 K, 25011 kPa, m1 = 1.951	1014.53
373.26 K, 29987 kPa, m1 = 1.951	1020.09
373.26 K, 34996 kPa, m1 = 1.951	1025.43
373.26 K, 39999 kPa, m1 = 1.951	1030.56
398.25 K, 874 kPa, m1 = 0.7158	791.54
398.25 K, 875 kPa, m1 = 0.3785	744.91
398.25 K, 4997 kPa, m1 = 0.7158	799.23
398.25 K, 5007 kPa, m1 = 0.3785	752.83
398.25 K, 9995 kPa, m1 = 0.7158	807.74
398.25 K, 9997 kPa, m1 = 0.3785	761.43
398.25 K, 14982 kPa, m1 = 0.7158	815.46
398.25 K, 15016 kPa, m1 = 0.3785	769.33
398.25 K, 19995 kPa, m1 = 0.7158	822.66
398.25 K, 19996 kPa, m1 = 0.3785	776.5
398.25 K, 25004 kPa, m1 = 0.7158	829.32
398.25 K, 25013 kPa, m1 = 0.3785	783.19
398.25 K, 29995 kPa, m1 = 0.3785	789.37
398.25 K, 29999 kPa, m1 = 0.7158	835.55
398.25 K, 34983 kPa, m1 = 0.7158	841.37
398.25 K, 34995 kPa, m1 = 0.3785	795.22
398.25 K, 39988 kPa, m1 = 0.7158	846.94
398.25 K, 40001 kPa, m1 = 0.3785	800.74
398.27 K, 890 kPa, m1 = 1.951	951.2
398.27 K, 899 kPa, m1 = 0.05772	692.91
398.27 K, 4987 kPa, m1 = 1.951	958.29
398.27 K, 5013 kPa, m1 = 0.05772	700.92
398.27 K, 9996 kPa, m1 = 1.951	966.33
398.27 K, 10001 kPa, m1 = 0.05772	709.63
398.27 K, 14992 kPa, m1 = 0.05772	717.48
398.27 K, 14992 kPa, m1 = 1.951	973.78
398.27 K, 19995 kPa, m1 = 0.05772	724.66
398.27 K, 20001 kPa, m1 = 1.951	980.78
398.27 K, 24985 kPa, m1 = 0.05772	731.27
398.27 K, 25015 kPa, m1 = 1.951	987.36
398.27 K, 29996 kPa, m1 = 1.951	993.57
398.27 K, 30002 kPa, m1 = 0.05772	737.46
398.27 K, 34980 kPa, m1 = 1.951	999.48
398.27 K, 34994 kPa, m1 = 0.05772	743.23
398.27 K, 39999 kPa, m1 = 0.05772	748.68
398.27 K, 40007 kPa, m1 = 1.951	1005.18
